Peptide text beside a SMILES is read from it.
Columns and labels:
THP-1 cells = format: cell-based, human; conditions: 10 nM peptide, 90 minutes, Boyden chamber
Protocol: The ability of [SRSRY] peptide to affect THP-1 cell migration was analyzed in Boyden chambers using 10 nM fMLF or 10 nM SRSRY as chemoattractants. […] Inhibitory effect of [SRSRY] is dose-dependent, it starts in the high fM range, it seems to level off in the μM range and reaches an overall 50% reduction at 10 pM (Fig 4B). […] The mechanisms by which monocytes move when subjected to a chemoattractant gradient, involve changes in cytoskeletal organization, which provide both protrusive and contractile forces necessary for cell migration. To gain some insights into the cellular effects exerted by peptide [SRSRY], PMA-differentiated THP-1 cells were grown adherent onto a glass slide, exposed to diluents (CTL), 10 nM fMLF gradient plus/minus 10 nM [SRSRY] or 10 nM [RSSYR] in a DUNN chamber for 6 hours as described, and then stained with rhodamine-phalloidin. A total of 100 cells/sample that translocated to the area corresponding to the ring separating the inner and outer chambers were counted and their cytoskeletal organization examined with a fluorescence-inverted microscope. […] Conversely, the addition of peptide [SRSRY] to the fMLF gradient reduced cell elongation and alignment with the appearance of F-actin linear distribution along the plasma membranes in the 60% of cell population (Fig 4C). In order to verify whether the inhibitory effect of [SRSRY] also occurs on primary monocytes and/or macrophages, human monocytes and macrophages were subjected to cell migration assays in Boyden and DUNN chambers, respectively. […] Unlike [RSSYR], 10 nM [SRSRY] reduced both fMLF- and SRSRY- directed monocyte migration by 50% and 49%, respectively. Next, primary macrophages were subjected to cell migration assay in DUNN chamber as above described. After 6 hours incubation, a total of 100 cells/sample that translocated to the area corresponding to the ring separating the inner and outer chambers were counted. Macrophage exposure to 10 nM fMLF elicited a considerable cell migration, reaching 230% of the basal cell migration (CTL), that was unchanged by 10 nM [[…]). […] These findings indicate that unlike linear SRSRY, the cyclic form of the chemotactic sequence of uPAR inhibits monocyte motility and prevents cytoskeletal re-organization occurring during migration of macrophages. {[…]] inhibits migration of monocytes and macrophages in a dose-dependent manner causing a marked inhibition of fMLF-dependent cytoskeletal re-organization. A. THP-1 cells (1x10^5 cells/well) were allowed to migrate for 90 minutes at 37°C, 5% CO2 in Boyden chambers toward 10 nM fMLF, or 10 nM SRSRY in the presence of diluents (None), 10 nM [RSSYR] or 10 nM [SRSRY]. […] Data are expressed as the means ± SD of three independent experiments, performed in duplicate. *Statistical significance against None with p<0.001. B. THP-1 and PMA-stimulated THP-1 cell migration toward 10 nM fMLF plus increasing concentrations of [SRSRY] in Boyden chambers. The extent of cell migration was expressed as a percentage of the net fMLF-dependent cell migration, considered as 100%. Data are expressed as the means ± SD of three independent experiments, performed in duplicate. C. Representative images of PMA-stimulated THP-1 cells allowed to migrate in a DUNN chamber toward diluents (CTL), or a fMLF chemotactic gradient, in the absence (None) or presence of 10 nM [SRSRY] or [RSSYR] peptides and stained with rhodamine-phalloidin. Scale bar: 10 μm. Original magnifications: 630x. D-E. Primary monocytes (1x10^5 cells/well) were allowed to migrate for 90 minutes at 37°C, 5% CO2 in Boyden chambers toward 10 nM fMLF (D), or 10 nM […]) in the presence of diluents (None), 10 nM [RSSYR] or 10 nM [SRSRY]. […] Data are expressed as the means ± SD of three independent experiments, performed in duplicate. *Statistical significance against None with p<0.001; **Statistical significance against None with p<0.0001. […]

primary macrophages = assay: Primary macrophage migration in DUNN chamber; format: cell-based, human; conditions: 10 nM peptide added to 10 nM fMLF gradient, 6 hours
Protocol: The ability of [SRSRY] peptide to affect THP-1 cell migration was analyzed in Boyden chambers using 10 nM fMLF or 10 nM SRSRY as chemoattractants. […] Inhibitory effect of [SRSRY] is dose-dependent, it starts in the high fM range, it seems to level off in the μM range and reaches an overall 50% reduction at 10 pM (Fig 4B). […] The mechanisms by which monocytes move when subjected to a chemoattractant gradient, involve changes in cytoskeletal organization, which provide both protrusive and contractile forces necessary for cell migration. […] A total of 100 cells/sample that translocated to the area corresponding to the ring separating the inner and outer chambers were counted and their cytoskeletal organization examined with a fluorescence-inverted microscope. […] After 6 hours incubation, a total of 100 cells/sample that translocated to the area corresponding to the ring separating the inner and outer chambers were counted. […] Data are expressed as the means ± SD of three independent experiments, performed in duplicate. *Statistical significance against None with p<0.001. […] The extent of cell migration was expressed as a percentage of the net fMLF-dependent cell migration, considered as 100%. Data are expressed as the means ± SD of three independent experiments, performed in duplicate. […]

FPR1 = molecular target: T1, FPR1 (Homo sapiens, UniProt P21462); assay: Agonist-induced FPR1 internalization at 37°C, fluorescence microscopy, THP-1 cells; format: cell-based; design: host or cells: THP-1 human monocytic leukemia cells; conditions: excess (100 nM) unlabelled peptide 30 min at 37°C, then 10 nM FITC-fMLF 30 min at 37°C
T1 sequence (P21462 1-350): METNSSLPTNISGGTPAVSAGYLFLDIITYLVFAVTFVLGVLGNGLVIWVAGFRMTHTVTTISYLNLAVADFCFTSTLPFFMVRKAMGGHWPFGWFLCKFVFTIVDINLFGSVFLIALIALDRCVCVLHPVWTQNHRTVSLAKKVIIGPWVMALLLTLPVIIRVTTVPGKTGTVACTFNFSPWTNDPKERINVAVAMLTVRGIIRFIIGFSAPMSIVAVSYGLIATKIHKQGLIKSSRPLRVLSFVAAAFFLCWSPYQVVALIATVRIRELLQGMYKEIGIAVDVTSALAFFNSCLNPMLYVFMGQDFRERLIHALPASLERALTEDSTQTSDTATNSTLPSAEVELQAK
Protocol: Once documented that both SRSRY and [SRSRY] peptides compete with fMLF for binding to FPR1, we investigated the effect of [SRSRY] on the motility of monocytes. Preliminarily, we assessed whether [SRSRY] is a ligand of FPR1 on monocyte cell surface. […] (Fig 3A). When binding experiments were performed at 37°C, FPR1 appeared mainly localized within the cytoplasm, adjacent but outside the nucleus of THP-1 cells.
Fig 3 The peptide [SRSRY] binds to FPR1 on THP-1 cell surface. A. THP-1 cells (1.5 x10^6 cells/sample) were pre-incubated with diluents (None), 100 nM fMLF, 100 nM SRSRY or 100 nM [SRSRY] peptides for 60 minutes at 4°C, then exposed to 10 nM N-formyl-Nle-Leu-Phe-Nle-Tyr-Lys-fluorescein (FITC-fMLF) for additional 60 minutes at 4°C. Fluorimetric measurement of cell-associated fluorescence was assed using 485 nm excitation and 535 nm emission filters. Data are expressed as a percentage of the fluorescence associated to THP-1 cells exposed to FITC-fMLF alone (None = 100%) and represent a mean ± SD from triplicates. *Statistical significance (t-test) against None with p<0.001. B. THP-1 cells incubated with diluents (None), 100 nM fMLF, 100 nM SRSRY or 100 nM [SRSRY] peptides for 30 minutes at 37°C and exposed to 10 nM FITC-fMLF for additional 30 minutes at 37°C. Scale bar: 5 μm. Original magnifications: 630x. […]

Which results are given for `N=C(N)NCCC[C@@H]1NC(=O)[C@H](CCCNC(=N)N)NC(=O)[C@H](Cc2ccc(O)cc2)NC(=O)[C@H](CO)NC(=O)[C@H](CO)NC1=O` [[RSSYR], [Arg-Ser-Ser-Tyr-Arg]] (cyclo(RRSSY))?
reduction of THP-1 monocyte migration toward 10 nM SRSRY (THP-1 cells): did not exert any effect; reduction of THP-1 monocyte migration toward 10 nM fMLF (THP-1 cells): did not exert any effect; effect on fMLF-directed migration of primary macrophages (primary macrophages): unchanged; internalization of fluorescent agonist in THP-1 cells (FPR1): did not exert such effect

From PMC4418665, “Cyclization of the Urokinase Receptor-Derived Ser-Arg-Ser-Arg-Tyr Peptide Generates a Potent Inhibitor of Trans-Endothelial Migration of Monocytes” (PLoS ONE, 2015)
